Data published in US20100204157A1, “USE OF A PEPTIDE AS A THERAPEUTIC AGENT” (priority 2007, published 2010).
Where no end group is shown, it is not given here.

Tested on: drug-resistant Mycobacterium tuberculosis
Settings: 5 micrograms per ml

For FFVAP [Phe-Phe-Val-Ala-Pro], the “% inhibition” value was 0.0%.
